According to publication PMC7413516, “Antidepressant-like activity and safety profile evaluation of 1H-imidazo[2,1-f]purine-2,4(3H,8H)-dione derivatives as 5-HT1A receptor partial agonists” (PLoS ONE, 2020):
Where two headings read alike, the source gives them in different places.

Experiment: Pharmacokinetic study in mice, plasma and brain structures, LC/MS/MS
Format: in vivo, Swiss albino mice
Settings: Swiss albino, mouse, ip, 1.25 mg/kg i.p.
Description: Blood samples from the Swiss albino mice were collected at 0 (pre-dose), 5, 15, 30, 60, 120, 240 and 480 min after a compound administration. The blood samples and brain structures were collected under general anesthesia induced by i.p. injection of 50 mg/kg ketamine plus 8 mg/kg xylazine. The blood samples were taken into heparinized tubes, immediately centrifuged at 1000 × g for 10 min, and plasma was collected. The plasma samples and brain structures were immediately frozen at -30°C and -80°C, respectively.
The plasma and tissue sample pretreatment procedure involved acetonitrile precipitation. A 5 μL aliquot of the IS working solution (100 ng/mL) was added to 50 μL of the collected mouse plasma sample, which was then vortex-mixed for 10 seconds. Thereafter, 200 μL of acetonitrile was added, vortexed during 20 min, and then centrifuged (1000 × g, 10 min). The supernatant (100 μL) was then transferred to insert placed in an autosampler vial, and a 10 μL volume of this was injected onto the HPLC column. Tissue samples were thawed before use, and whole hippocampus, striatum and frontal cortex were weighted and placed in a glass mortar and pestle tissue grinder and homogenized with an appropriate amount of phosphate buffer (pH 7.4) in 1:5 ratio. Afterward, 50 μL of tissue homogenates were transferred to new Eppendorf tubes and spiked with 5 μL of the internal standard working solution. All samples were stored on ice during the preparation process. This was followed by procedures like those described above.
The LC/ESI-MS/MS experiments were performed on an Applied Biosystems/MDS Sciex (Concord, Ontario, Canada) API 2000 triple quadrupole mass spectrometer equipped with an electrospray (ESI) ionization interface. This instrument was coupled to an Agilent 1100 (Agilent Technologies, Waldbronn, Germany) LC system. Data acquisition and processing were accomplished using Sciex Analyst 1.4.2 data collection and integration software.
An XBridge C18 (2.1 x 30 mm, 3.5 μm) analytical column (Waters, Milford, Massachusetts, USA) was used for compound separation. The temperatures of the column thermostat and the autosampler were set at 25°C and 10°C, respectively. The mobile phase consisted of a mixture of acetonitrile with addition of 0.1% formic acid (solvent A) and water with addition of 0.1% formic acid (solvent B) and was set at a flow rate of 0.6 mL/min. Starting amount of solvent A is 10%, isocratic elution from 0 to 3 min, and then gradient up to 90% of solvent A, and maintained to 10 min, and then gradient down to 10% of solvent A, and maintained to 15 min.
The ion source parameters were as follows: ion spray voltage: 5500 V; nebulizer gas (gas 1): 20 psi; turbo gas (gas 2): 25 psi; temperature of the heated nebulizer: 400°C; curtain gas: 40 psi; collision gas: 6 psi. Mass spectra were acquired by SRM with precursor/predominant product ion transitions for each analyte. The mass spectral Q1→Q3 transitions monitored for AZ-853, AZ-861 and for IS (nebivolol), were m/z 453.9→235.1; 504.3→285.1 and 406.2→151.1, respectively. The peak widths of precursor and product ions were set to 0.7 full width half-height. Quantification was done via peak area ratio.
Pharmacokinetic parameters were calculated by a non-compartmental approach from the average concentration values, using Phoenix WinNonlin software (Certara, Princeton, NJ 08540 USA). First order elimination rate constant (λz) was calculated by linear regression of time versus log concentration. Next, the area under the mean serum and tissue concentration versus time curve (AUC0→t) was estimated using the log-linear trapezoidal rule (1), where Ci is the plasma concentration measured at t1.
AUC0→t=∑i=1n((Ci+Ci+1)/2)∙(ti+1−ti). (1)
Area under the first-moment curve (AUMC0→t) was estimated by calculation of the total area under the first-moment curve using the Eq (2), where Ci is the plasma concentration measured at t1. AUMC0→t=∑i=1n((ti∙Ci+ti+1∙Ci+1)/2)∙(ti+1−ti). […]

[1] = hippocampus, 1.25 mg/kg, read-out: Concentration, hippocampus (individual animals)
[2] = hippocampus, 1.25 mg/kg, read-out: Concentration, hippocampus (Mean)
[3] = plasma, 1.25 mg/kg, read-out: Concentration, plasma (Mean)
[4] = plasma, 1.25 mg/kg, read-out: Concentration, plasma (individual animals)
[5] = striatum, 1.25 mg/kg, read-out: Concentration, striatum (Mean)
[6] = striatum, 1.25 mg/kg, read-out: Concentration, striatum (individual animals)

- concentration at 5 min [1]: 289 ng/mL
- concentration at 15 min [2]: 307 ng/mL
- concentration at 15 min [1]: 264 ng/mL
- concentration at 30 min [2]: 253 ng/mL
- concentration at 30 min [1]: 245 ng/mL
- concentration at 60 min [2]: 96.9 ng/mL
- concentration at 60 min [1]: 101 ng/mL
- concentration at 120 min [2]: 54.3 ng/mL
- concentration at 120 min [1]: 60.2 ng/mL
- concentration at 240 min [2]: 19.6 ng/mL
- concentration at 240 min [1]: 18.2 ng/mL
- concentration at 480 min [2]: 15.8 ng/mL
- concentration at 480 min [1]: 15.8 ng/mL
- Cmax (hippocampus, 1.25 mg/kg, read-out: Cmax, hippocampus): 308 ng/g
- Tmax (hippocampus, 1.25 mg/kg, read-out: tmax, hippocampus (converted)): 15 min
- CL/F (plasma): 590 mL/min/kg
- AUC(0-t) (plasma, read-out: AUC0→t, plasma (converted)): 34.5 ng·h/mL
- MRT (plasma, read-out: MRT, plasma (converted)): 52.3 min
- concentration at 5 min [3]: 59.8 ng/mL
- concentration at 15 min [3]: 36.3 ng/mL
- concentration at 15 min [4]: 26.4 ng/mL
- concentration at 30 min [3]: 24.8 ng/mL
- concentration at 60 min [3]: 5.84 ng/mL
- concentration at 60 min [4]: 7.37 ng/mL
- concentration at 120 min [3]: 2.58 ng/mL
- concentration at 120 min [4]: 1.84 ng/mL
- concentration at 240 min [3]: 0.56 ng/mL
- concentration at 480 min [3]: 0.27 ng/mL
- concentration at 480 min [4]: 0.25 ng/mL
- Vd/F (plasma, 1.25 mg/kg, plasma, read-out: Vd/F): > 84 L/kg
- Cmax (plasma, 1.25 mg/kg, read-out: Cmax, plasma): 59.6 ng/mL
- Tmax (plasma, 1.25 mg/kg, read-out: tmax, plasma): ≤ 5 min
- Kp (striatum, ratio of AUC values, read-out: Brain structure-to-plasma concentration ratio, striatum (S/P)): 8.97
- AUC(0-t) (striatum, read-out: AUC0→t, striatum (converted)): 309 ng·h/mL
- MRT (striatum, read-out: MRT, striatum (converted)): 56.9 min
- concentration at 5 min [5]: 181 ng/mL
- concentration at 5 min [6]: 190 ng/mL
- concentration at 15 min [5]: 334 ng/mL
- concentration at 15 min [6]: 377 ng/mL
- concentration at 30 min [5]: 305 ng/mL
- concentration at 30 min [6]: 341 ng/mL
- concentration at 60 min [5]: 58.1 ng/mL
- concentration at 60 min [6]: 61.6 ng/mL
- concentration at 120 min [5]: 25.6 ng/mL
- concentration at 120 min [6]: 28.4 ng/mL
- concentration at 240 min [5]: 5.89 ng/mL
- concentration at 240 min [6]: 6.95 ng/mL
- concentration at 480 min [5]: 1.86 ng/mL
- concentration at 480 min [6]: 1.65 ng/mL
- Cmax (striatum, 1.25 mg/kg, read-out: Cmax, striatum): 333 ng/g
- Tmax (striatum, 1.25 mg/kg, read-out: tmax, striatum (converted)): 15 min
SMILES: Cn1c(=O)c2c(nc3n(CCCCN4CCN(c5cccc(C(F)(F)F)c5)CC4)ccn23)n(C)c1=O [AZ-861, 1,3-dimethyl-8-(4-(4-(3-(trifluoromethyl)phenyl)piperazin-1-yl)butyl)-1H-imidazo[2,1-f]purine-2,4(3H,8H)-dione]
